Measurements published in patent US6630326B2, “Cancer diagnosis and therapy based on mutations in TGF-β receptors” (Case Western Reserve University, priority 1995, dated 2003).
Entries after “also recorded” stand apart in the source; their conditions may differ.

Experiments:
[1] = test system: RII expression in MCF-7, ZR-75, and T-47D; experiment: RNase protection assay for RII transcript after 5-Azacytidine treatment; assay type: cell-based, human; conditions: ER+ breast cancer cell lines MCF-7, ZR-75, T-47D; 2.5-5.0 μM 5-Azacytidine; after 8 days
From the text: A preferred method for detecting loss of mRNA is based on RNase protection. Details of this assay have been published in Sun, et al. Briefly the RNase protection assay measures the amount of RII mRNA in a sample by measuring the amount of RNA which binds to a radioactive antisense RII RNA probe. The radioactive antisense RII RNA probe is produced in a test tube, for example from a plasmid which carries 264 bp for RII cDNA (NarI-PstI) cloned downstream of a T3 RNA polymerase site from which the RNA can be transcribed. Usually, a control human probe such as γ-actin RNA is also prepared from a similar plasmid. The probes are hybridized overnight at room temperature in a guanidine buffer with RNA extracted from tumor cells. The next morning probe RNA which is not protected by binding to authentic RII transcript is destroyed by digestion with RNase A+T1. Protected probe RNA is separated from the reaction by electrophoresis on a urea-acrylamide gel and visualized by autoradiography.
Expression of RI and RII transcripts was examined in 38 human colon tumor cell lines using a ribonuclease (RNase) protection assay as described above (see also Sun, et al., 1994). Total RNA (40 μg) from each sample was hybridized overnight in a single reaction to probes for RI, RII and human γ-actin. […]

[2] = test system: RII protein expression in MCF-7, ZR-75, and T-47D; experiment: 125I-TGFβ cross-link assay for cell surface RII protein after 5-Azacytidine treatment; assay type: cell-based, human; conditions: MCF-7, ZR-75, T-47D; 2.5-5.0 μM 5-Azacytidine; after 8 days
From the text: A preferred method of detecting the presence of functional RII is by TGFβ binding assay in which labelled TGFβ binds to RII followed by cross-linking and measurement of the amount of label linked to RII protein. Details of this assay have been published in Sun, et al., incorporated herein by reference. Briefly, cell surface receptors may be detected by cross-linking in situ to ^125I labelled TGFβ followed by separation on SDS-PAGE and visualization by autoradiography as described in Example 3 below.
To assay for expression of cell surface TGFβ receptors, we performed cross-linking experiments with ^125I-labeled TGFβ. Cell surface TGFβ receptors were labeled by cross-linking to ^125I-labeled human TGFβ1 as described in Sun, L., et al., 1994 (J. Biol. Chem., 269:26449). Labeled receptors were resolved by SDS-polyacrylamide gel electrophoresis and visualized by autoradiography. There was no detectable ^125I-TGFβ binding to any of eight tested RER^+ cell lines with reduced amounts of RII transcript (FIG. 3). The absence of RI surface receptors in these lines (FIG. 3) is consistent with previous reports that RII receptor is required for TGFβ binding to RI (Wrana, J., et al., 1992, Cell, 71:1003; Sun, L., et al., 1994, J. Biol. Chem., 269:26449). […]

[3] = test system: colon cells with intact TGFβ receptors; experiment: TGFβ-induced cell death in colon cells; assay type: cell-based; conditions: colon cells with intact TGFβ receptors exposed to TGFβ
From the text: Thus, therapeutic effects of restoring an active RII in colon cancer cells will include restoring normal cell death pathways. RII gene therapy is thus useful in combination with and to sensitize cells to conventional cytotoxic radiation or chemotherapy.

Row | Compound | RII expression (RNase protection assay) [1] | RII protein expression (125I-TGFβ cross-link) [2] | induction of cell death (apoptosis) [3]
1 | Nc1ncn([C@@H]2O[C@H](CO)[C@@H](O)[C@H]2O)c(=O)n1 [5-Azacytidine] | restored RII expression; also recorded: RII expression by the treated cells was demonstrated | RII protein expression was confirmed | 
2 | TGFβ: transforming growth factor beta, natural inhibitor of growth of human epithelial cells |  |  | induce cell death
